From US7020578B2, “Method for evaluating novel, stroke treatments using a tissue risk map” (The General Hospital Corporation, priority 2000, dated 2006)

How the values were obtained:
Type in all cases: in vivo, human
[1] = GLM risk map of infarction from initial DWI/PWI compared with final infarct on follow-up imaging in bFGF trial patients; conditions: Patient 7; full dose (150 ug/kg); 19 day follow-up FLAIR
Description: A generalized linear model (GLM) of risk of tissue infarction was generated from retrospective studies of hyperacute cerebral ischemia patients who received diffusion and perfusion weighted imaging within twelve hours of presenting with symptoms. Only patients with cortical infarcts caused by occlusion of major cerebral arteries were included in the training data. […] The volumetric diffusion and perfusion data were coregistered utilizing an automated image registration software package (AIR 3.08). Utilizing a supervised learning algorithm and logistic regression, the parameters for the GLM were computed using coregistered data sets, as described in the previous section.
In one embodiment, a GLM algorithm is used to model tissue outcome. Tissue outcome y can be modeled as a binary variable (normal/abnormal) and therefore a Bernoulli probability density function assumed for its distribution. The logistic function can then be used to compute y as set forth below in Equation 1: [formula] where y is an estimate of the risk of infarction, x represents an input vector that can include an initial T2, ADC, rCBF (relative cerebral blood flow), rCBV (relative cerebral blood volume) and MTT (mean transmit time) data and B the calculated coefficients.
The dose of bFGF was correlated with the positive predictive value (PPV) of the GLM model described in the previous section. […]

[2] = phase I/II double-blind, randomized, placebo-controlled, dose-escalation trial of intravenous bFGF (FIBLAST) in stroke patients; change in NIH Stroke Scale score, admission vs discharge; conditions: for number of treated patients with ΔNIH SS < 4 / number of treated patients with ΔNIH SS ≧ 4 (improved outcome): 2 × 2 contingency table
Protocol: Sixty-six patients were entered into a phase I/II trial of basic fibroblast growth factor (bFGF), FIBLAST. This trial was a double-blind, randomized, placebo-controlled, dose-escalation, and three month follow-up study of intravenous infusion of basic fibroblast growth factor (bFGF). Patients were randomized either to placebo or one of six different doses of bFGF ranging from […] to 150 μg/kg. Eleven patients were enrolled at Massachusetts General Hospital (MGH). Each patient underwent MRI imaging according to the standard MGH protocol within the first ten hours of symptom onset, and follow-up imaging at discharge.
The primary efficacy measure was change in NIH Stroke Scale (NIHSS) score measured at admission compared to that reported at discharge. Patients were classified as having an improved outcome if the NIH SS score decreased by more than four points. Two by two contingency tables were computed for the placebo versus the bFGF treated patients and a Fisher's Exact test performed.
Patients with greater than a four point change on the NIH SS score were classified as having a favorable outcome. A 2×2 contingency table, shown in Table 4, was evaluated for statistical independence between treated and placebo groups using Fisher's exact test.

[3] = as above; conditions: Patient 9*; 3 μg/kg; NIH SS (Initial) 2; follow-up 3 days
[4] = patients enrolled at MGH, all doses pooled
[5] = subset of 7 patients evaluated with GLM models

## basic fibroblast growth factor [bFGF]
[1]
  outcome of penumbra predicted at risk of infarction by the risk map, on follow-up FLAIR: does not go on to infarction
[2]; [4]
  number of treated patients with ΔNIH SS < 4: 4
  number of treated patients with ΔNIH SS ≧ 4 (improved outcome): 4
[2]; [5]
  number of treated patients with ΔNIH SS < 4: 1
  number of treated patients with ΔNIH SS ≧ 4 (improved outcome): 4
[2]; Patient 3, 9 μg/kg, NIH SS (Initial) 15, follow-up 7 days
  NIH SS (Discharge): 5
[2]; Patient 4, 27 μg/kg, NIH SS (Initial) 15, follow-up 7 days
  NIH SS (Discharge): 11
[2]; Patient 5, 75 μg/kg, NIH SS (Initial) 6, follow-up 4 days
  NIH SS (Discharge): 1
[2]; Patient 6, 150 μg/kg, NIH SS (Initial) 16, follow-up 13 days
  NIH SS (Discharge): 14
[2]; Patient 7, 150 μg/kg, NIH SS (Initial) 17, follow-up 19 days
  NIH SS (Discharge): 12
[2]; Patient 8*, 75 μg/kg, NIH SS (Initial) 4, follow-up 8 days
  NIH SS (Discharge): 2
[2]; Patient 10*, 75 μg/kg, NIH SS (Initial) 4, follow-up 5 days
  NIH SS (Discharge): 3
[2]; Patient 11*, 3 μg/kg, NIH SS (Initial) 18, follow-up 7 days
  NIH SS (Discharge): 20
[2]; Table 4, patients enrolled at MGH
  statistical independence between treated and placebo groups, improved outcome (Fisher's exact test): No statistical significance
[2]; Table 5, subset of 7 patients
  statistical independence between treated and placebo groups, improved outcome (Fisher's exact test): No statistical significance
[3]
  NIH SS (Discharge): 2
